Laboratory results: patent US5447717A, “Cholesterol-lowering agents” (Merck & Co., Inc., priority 1993, dated 1995)

Columns and labels:
[1] = molecular target: T1, Squalene Synthase (Rattus norvegicus, UniProt Q02769); experiment: Squalene Synthase Assay (in vitro, rat liver microsomes); format: biochemical; conditions: [4-14C]farnesyl pyrophosphate, 30° C., 20 minutes
T1 construct: from tissue; host or cells: rat liver microsomes (male Charles River CD rats, fed 0.1% lovastatin for 4 days)
T1 sequence (Q02769 1-416): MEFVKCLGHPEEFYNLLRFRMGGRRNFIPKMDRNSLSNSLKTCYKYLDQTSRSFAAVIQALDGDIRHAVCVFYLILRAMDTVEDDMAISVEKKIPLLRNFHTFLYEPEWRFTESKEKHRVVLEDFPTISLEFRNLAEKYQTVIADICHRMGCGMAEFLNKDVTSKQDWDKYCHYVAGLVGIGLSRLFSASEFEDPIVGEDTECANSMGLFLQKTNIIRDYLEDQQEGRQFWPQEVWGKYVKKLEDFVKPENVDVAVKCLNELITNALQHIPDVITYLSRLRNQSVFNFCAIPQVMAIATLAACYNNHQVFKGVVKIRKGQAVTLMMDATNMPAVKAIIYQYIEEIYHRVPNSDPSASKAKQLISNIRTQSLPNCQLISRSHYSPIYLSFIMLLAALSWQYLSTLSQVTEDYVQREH
Procedure: The intrinsic squalene synthase inhibitory activity of representative compounds of this invention was measured by the standard ill vitro protocol described below:
Preparation of Rat Liver Microsomes
Male, CHARLES RIVER CD® rats (120 to 150 g) were fed a diet containing 0.1% lovastatin for 4 days. The livers from these rats were homogenized in 5 volumes (mL/g) of ice cold 50 mM HEPES (4-(2-hydroxyethyl)-1-piperazine-ethanesulfonic acid), 5 mM EDTA(ethylenediaminetetraacetic acid) pH 7.5 with a Potter-Elvehjem type tissue grinder. The homogenate was centrifuged twice at 20,000 × g for 15 min. at 4° C., discarding the pellet each time. The supernatant was then centrifuged at 100,000 × g for 1 hr at 4° C. The resulting microsomal pellet was resuspended in a volume of the above homogenizing buffer equal to one-fifth the volume of the original homoSenate. This microsomal preparation has a protein concentration of about 7 mg/mL. The microsomal suspensions were stored in aliquots at -70° C. Squalene synthase activity in these aliquots is stable for a least several months.
Partial Purification of Prenyl Transferase
Prenyl transferase was purified to use in the enzymatic synthesis of radiolabelled farnesyl pyrophosphate. […]

[2] = tested on: Ras; conditions: Hancock et al.; Casey et al.; Schafer et al.; cited from earlier work

Structure (SMILES)	IC50 [1]	Inhibition of Ras farnesylation in vivo [2]
C=C(CCC12OC3C(=O)OC3(C(=O)O)C(C(=O)O)(O1)C(OC(=O)/C=C/C(C)CC(C)CC)C2O)C(OC(C)=O)C(C)Cc1ccccc1 (stereo not drawn) [Compound 1, IIA-β-Lactone]	400 pM	
CC[C@H](C)C(=O)O[C@H]1CCC=C2C=C[C@H](C)[C@H](CC[C@@H]3C[C@@H](O)CC(=O)O3)[C@H]21 [compactin]		Inhibition of Ras farnesylation in vivohas been demonstrated
CC[C@H](C)C(=O)O[C@H]1C[C@@H](C)C=C2C=C[C@H](C)[C@H](CC[C@@H]3C[C@@H](O)CC(=O)O3)[C@H]21 [lovastatin]		Inhibition of Ras farnesylation in vivohas been demonstrated
